The nature of data set [1]: Tolerability in Sprague-Dawley rats, kidney function, urine total protein to creatinine ratio (Example 20). The note with it: male Sprague-Dawley rats, 50 mg/kg subcutaneously weekly for 6 weeks (total 7 doses).
Method: Male Sprague-Dawley rats were maintained on a 12-hour light/dark cycle and fed ad libitum with Purina normal rat chow. Groups of 4 Sprague-Dawley rats each were weekly injected subcutaneously with 50 mg/kg of Ionis oligonucleotide for 6 weeks (total 7 doses). Forty-eight hours after the last dose, the rats were euthanized; and organs, urine and plasma were harvested for further analysis.
To evaluate the effect of Ionis oligonucleotides on kidney function, urinary levels of total protein and creatinine were measured using an automated clinical chemistry analyzer (Hitachi Olympus AU400c, Melville, N.Y.).
The nature of data set [2]: Tolerability in CD-1 mice, plasma chemistry markers (Example 17). The class given is in vivo. The note with it: male CD-1 mice, 50 mg/kg s.c. twice a week for four weeks (8 treatments), day 27. How it is done:
(§1) CD-1 mice were treated with modified oligonucleotides selected from studies described above and evaluated for changes in the levels of various plasma chemistry markers.
(§2) Groups of four male CD-1 mice at 4-5 weeks of age (obtained from Charles River) were injected subcutaneously twice a week for four weeks (for a total of 8 treatments) with 50 mg/kg of modified oligonucleotides. One group of male CD-1 mice was injected with PBS. Mice were euthanized on day 27 post start of treatment (24 hrs following the final administration).

Data set [3] can be described thus: Tolerability in Sprague-Dawley rats, body and organ weights (Example 20). The class given is in vivo. Particulars: male Sprague-Dawley rats, 50 mg/kg s.c. weekly for 6 weeks (7 doses); for Kidney weight / Liver weight / Spleen weight: end of study; for body weight: terminal, prior to necropsy. The procedure:
Terminal body weight was measured prior to necropsy. Ionis oligonucleotides that caused any changes in organ weights outside the expected range for modified oligonucleotides were excluded from further studies.

Data set [4] in a line: Tolerability in Sprague-Dawley rats, plasma chemistry markers (Example 20). The note with it: male Sprague-Dawley rats, 50 mg/kg s.c. weekly for 6 weeks (7 doses), 48 hours after last dose. The format is in vivo. The procedure: Sprague-Dawley rats are a multipurpose model used for safety and efficacy evaluations. The rats were treated with Ionis modified oligonucleotides from the studies described in the Examples above and evaluated for changes in the levels of various plasma chemistry markers.

Data set [5] can be described thus: Tolerability in CD-1 mice, body and organ weights (Example 17). The class given is in vivo. The note with it: male CD-1 mice, 50 mg/kg s.c. twice a week for four weeks (8 treatments), end of study (day 27). The procedure:
as §2
(§3) Body weights of CD-1 mice were measured at the end of the study, and the average body weight for each group is presented in the table below. Modified oligonucleotides that caused any changes in organ weights outside the expected range for modified oligonucleotides were excluded from further studies.

Data set [6] deals with Yap1 mRNA. Briefly: Dose-dependent inhibition of human Yap1 in A-431 cells (Example 7, 10,000 cells per well, RTS36584). The class given is cell-based. The note with it: free uptake; for Yap1 mRNA, % UTC: A-431 cells 10,000 cells per well, 48 hours. An outline of the steps:
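A-431 cells at 10,000 per well received modified oligonucleotides by free uptake at several doses. After about 48 hours, Yap1 mRNA was quantified with primer-probe set RTS36584, normalized to RIBOGREEN total RNA and expressed as % untreated control. IC50 came from linear regression on a log/linear plot.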

Data set [7] can be described thus: Tolerability in Balb/c mice, body and organ weights (Example 13). The format is in vivo. The note with it: male Balb/c mice, 50 mg/kg s.c. twice a week for four weeks (8 treatments), end of study (day 25). How it is done:
(§4) Groups of male Balb/c mice at 4-6 weeks of age (obtained from Taconic) were injected subcutaneously twice a week for four weeks (for a total of 8 treatments) with 50 mg/kg of modified oligonucleotides. One group of male Balb/c mice was injected with PBS. Mice were euthanized on day 25 post start of treatment (24 hours following the final administration).
Body weights of Balb/c mice were measured at the end of the study, and the average body weight for each group is presented in the table below. Modified oligonucleotides that caused any changes in organ weights outside the expected range for modified oligonucleotides were excluded from further studies.

Data set [8] in a line: Tolerability in Balb/c mice, plasma chemistry markers (Example 13). The class given is in vivo. The note with it: male Balb/c mice, 50 mg/kg s.c. twice a week for four weeks (8 treatments), day 25. The procedure:
Balb/c mice were treated with modified oligonucleotides selected from studies described above and evaluated for changes in the levels of various plasma chemistry markers.
as §4

Data set [9] is described as follows: Tolerability in CD-1 mice, body and organ weights (Example 18). The class given is in vivo. Particulars: male CD-1 mice, 50 mg/kg s.c. twice a week (total of 9 treatments), end of study (day 34). The procedure:
(§5) Groups of four male CD-1 mice at 5-6 weeks of age (obtained from Charles River) were injected subcutaneously twice a week for four weeks (for a total of 9 treatments) with 50 mg/kg of modified oligonucleotides. One group of male CD-1 mice was injected with PBS. Mice were euthanized on day 34 post start of treatment (24 hours following the final administration).
as §3

Data set [10] has as its system Yap1 mRNA. Briefly: Dose-dependent inhibition of human Yap1 in A-431 cells (Example 8, 10,000 cells per well, RTS4814). The format is cell-based. Particulars: free uptake, approximately 48 hours, RTS4814; for Yap1 mRNA, % UTC: A-431 cells, 10,000 cells per well; for IC50: A-431 cells, linear regression on log/linear plot. An outline of the steps:
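A-431 cells (10,000/well) dosed with modified oligonucleotides by free uptake; Yap1 mRNA measured ~48 h later with primer-probe set RTS4814, normalized to total RNA (RIBOGREEN). Values are % of untreated control; IC50 from linear regression on log/linear plot.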

Data set [11] is described as follows: Tolerability in CD-1 mice, plasma chemistry markers (Example 18). The format is in vivo. The note with it: male CD-1 mice, 50 mg/kg s.c. twice a week (total of 9 treatments), day 34. How it is done:
as §1, §5

Data set [12] has as its system Yap1 mRNA. Briefly: Inhibition of human Yap1 mRNA in SNU449 hepatocellular carcinoma xenograft tumors (Example 26). The format is in vivo. Particulars: SNU449 xenografts in NSG mice, 50 mg/kg twice weekly for five days, relative to PBS treated animals. The procedure:
A SNU449 hepatocellular carcinoma xenograft tumor model was used to evaluate activity of modified oligonucleotides targeted to human Yap1. Ten million SNU449 cells in 30% matrigel were implanted subcutaneously into the flanks of female NOD Cg-Prkdcscid ll2rgtm1Wjl/SzJ (NSG) mice (from Jackson Laboratory) at 4-6 weeks of age. When tumors reached an average volume of 100 mm^3, approximately two weeks post-implantation, groups of four mice each were administered at 50 mg/kg twice weekly with modified oligonucleotides for five days. Tumors were collected and tested for Yap1 mRNA knockdown by RT-qPCR. Yap1 mRNA levels were measured as previously described using the Human Yap1 primer-probe set RTS4814. Yap1 mRNA levels were normalized to actin-beta content, as measured by primer probe set RTS5002. Results are presented in the tables below as percent control of the amount of Yap1 mRNA relative to PBS treated animals (% control).
In general terms: Xenograft models place foreign cells or tissue in a host animal.

Data set [13] relates to Yap1 mRNA. Briefly: Dose-dependent inhibition of human Yap1 in SNU-449 cells (Example 9, RTS36584). The format is cell-based. The note with it: free uptake; for % UTC (Yap1 mRNA): approximately 48 hours. An outline of the steps:
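SNU-449 cells (10,000/well) took up modified oligonucleotides by free uptake at a range of doses for about 48 h. Yap1 mRNA was quantified with primer-probe set RTS36584, normalised to RIBOGREEN total RNA and expressed as % untreated control; IC50 from linear regression on log/linear plot.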

Strand notation (5' to 3'): a small letter for the sugar, then the base; units joined by * are phosphorothioate-linked, units joined directly phosphodiester-linked; [ ] holds rarer units or linkages, { } end groups; capitals alone tell only the bases. k = constrained ethyl (cEt); [5mC] = 5-methylcytosine; d = 2'-deoxy (DNA) Bounds are passed on as bounds.

The text below walks through data of patent publication US11214803B2, “Modulators of YAP1 expression” (Ionis Pharmaceuticals, Inc., priority 2019, dated 2022).

As to “1097224 (k[5mC]*kT*k[5mC]*dT*dT*dA*dT*dA*dT*dG*dG*dT*dT*kT*kT*kG; antisense) [compound 1097224]”, the “URINE P/C ratio (total protein to creatinine ratio)” value (“URINE P/C ratio” below) in data set [1] amounted to 87. Also, in data set [2], the ALT was found to be 39 U/L, the AST is 78 U/L, the BUN is on record as 21 mg/dL and the TBIL came to 0.09 mg/dL. In data set [3], the Kidney weight worked out at 4.5 g, the Liver weight stood at 13 g, the Spleen weight is 1.4 g and the body weight was found to be 316 g. Besides, in [4], the ALB is 1.61 g/dL, the ALT is on record as 31 U/L, the AST is given as 51 U/L and the BUN amounted to 86 mg/dL. In [4], this substance gave a TBIL of 0.07 mg/dL. Moreover, in data set [5], the Kidney weight amounted to 0.54 g, the Liver weight was 1.93 g, the Spleen weight amounted to 0.16 g and the body weight was determined as 37 g.
Consider “958371 (antisense kA*k[5mC]*k[5mC]*dA*dA*d[5mC]*dT*dA*dT*dT*dA*d[5mC]*dT*kT*k[5mC]*kA) [compound 958371]”, for which, in data set [6] (Table 56, 15.6 nM), the “Yap1 mRNA, % UTC” value was 89 % UTC. In addition, the “Yap1 mRNA, % UTC” value in data set [6] (Table 56, 62.5 nM) is listed as 57 % UTC. Also, the “Yap1 mRNA, % UTC” value in data set [6] (Table 56, 4000.00 nM) is listed as 11 % UTC. Also, the midpoint of inhibition in [6] (Table 56, A-431 cells 10,000 cells per well), the IC50, lay at 100 nM. In [7], this substance registered a Kidney weight of 0.32 g, a Liver weight of 1.31 g, a Spleen weight of 0.15 g and a body weight of 23 g. In addition, in [8], the ALT was 249 U/L, the AST is recorded as 199 U/L, the BUN worked out at 30 mg/dL and the TBIL stood at 0.24 mg/dL.
In [9], “1074755 (k[5mC]*kA*k[5mC]*dT*dT*dT*dT*dA*d[5mC]*dA*dT*dT*dA*kG*kG*kA; antisense) [compound 1074755]” yielded a Kidney weight of 0.61 g, a Liver weight of 2.27 g, a Spleen weight of 0.19 g and a body weight of 39 g. Moreover, the “Yap1 mRNA, % UTC” value in data set [10] (31.3 nM) worked out at 28 % UTC. Further, the “Yap1 mRNA, % UTC” value in data set [10] (125.0 nM) came to 9 % UTC. For the same substance, the “Yap1 mRNA, % UTC” value in data set [10] (500.0 nM) came out at 5 % UTC. For the same substance, in [10] (2000.00 nM), the “Yap1 mRNA, % UTC” value was 3 % UTC. For the same substance, in [10], the IC50 is below 20 nM. Besides, the “URINE P/C ratio” value in [1] worked out at 5. In data set [11], this substance yielded an ALT of 88 U/L, an AST of 104 U/L, a BUN of 22 mg/dL and a TBIL of 0.21 mg/dL. In data set [3], the Kidney weight came to 3.3 g, the Liver weight is reported as 16 g, the Spleen weight is 2.1 g and the body weight came out at 357 g. In data set [4], this substance registered an ALB of 2.99 g/dL, an ALT of 57 U/L, an AST of 97 U/L and a BUN of 29 mg/dL. This substance had a TBIL in data set [4] of 0.12 mg/dL. Also, in data set [12], the “Yap1 mRNA in tumors, % control” value is reported as 70 % control.
With “1076481 (k[5mC]*kT*kA*dA*dG*dT*dA*dA*dG*dG*dT*dT*dT*k[5mC]*k[5mC]*k[5mC]) [compound 1076481]”, the Kidney weight amounted to 0.57 g in data set [9] and 2.6 g in [3]. The Liver weight in data set [9] is 2.06 g; in data set [3], 14 g. The Spleen weight was 0.23 g in data set [9] and 2.1 g in data set [3]. The body weight is 39 g in [9] and 367 g in data set [3]. Besides, the “Yap1 mRNA, % UTC” value in data set [10] (31.3 nM) amounted to 21 % UTC; in data set [10] (125.0 nM), 4 % UTC; in [10] (500.0 nM) it was 2 % UTC; in data set [10] (2000.00 nM), 3 % UTC. In addition, the IC50 in [10] was below 20 nM; in data set [13] (linear regression on a log/linear plot), 100 nM. Further, the “URINE P/C ratio” value in data set [1] was found to be 5. Further, the ALT in data set [11] turned out to be 71 U/L; in data set [4] it was 50 U/L. Further, the figures for the AST in data set [11] and in [4] were 121 U/L and 91 U/L, respectively. Besides, the BUN is 23 mg/dL in data set [11] and 49 mg/dL in data set [4]. Moreover, the TBIL is 0.23 mg/dL in data set [11] and 0.13 mg/dL in data set [4]. For the same substance, the “% UTC (Yap1 mRNA)” value in [13] (31.3 nM) was found to be 86 % UTC; in data set [13] (125.0 nM), 40 % UTC; in [13] (500.0 nM), 15 % UTC; in data set [13] (2000.00 nM), 3 % UTC. In addition, the ALB in data set [4] was 2.74 g/dL.

Broadly, the IC50 is the midpoint of a concentration-inhibition curve.
